Earlier results as cited in US20260146084A1, “METHODS FOR TREATING MYELOFIBROSIS AND RELATED CONDITIONS” (Disc Medicine, Inc., priority 2019, published 2026).

How the values were obtained:
[1] = target: T1, ACVR1 (HJV signaling partner) (Homo sapiens, UniProt Q04771)
T1 sequence (Q04771 21-509): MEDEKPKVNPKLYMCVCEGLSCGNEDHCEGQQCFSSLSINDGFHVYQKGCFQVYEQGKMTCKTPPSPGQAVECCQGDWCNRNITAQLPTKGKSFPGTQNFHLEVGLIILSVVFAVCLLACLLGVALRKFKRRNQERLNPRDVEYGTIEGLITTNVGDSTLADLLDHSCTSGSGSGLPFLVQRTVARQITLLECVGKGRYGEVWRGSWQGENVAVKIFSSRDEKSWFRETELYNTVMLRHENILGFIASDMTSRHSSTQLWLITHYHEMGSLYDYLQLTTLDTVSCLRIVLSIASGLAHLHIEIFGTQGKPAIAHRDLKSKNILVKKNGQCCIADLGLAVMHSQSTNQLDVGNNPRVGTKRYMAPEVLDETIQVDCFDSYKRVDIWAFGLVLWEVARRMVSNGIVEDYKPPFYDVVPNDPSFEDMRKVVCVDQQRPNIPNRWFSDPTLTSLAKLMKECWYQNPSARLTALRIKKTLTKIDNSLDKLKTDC

JAK2 = JAK2 (Homo sapiens, UniProt O60674)
JAK1 = JAK1 (Homo sapiens, UniProt P23458)
[2] = system: pro-inflammatory cytokines; settings: mouse models

JAK1, sequence (P23458 whole entry): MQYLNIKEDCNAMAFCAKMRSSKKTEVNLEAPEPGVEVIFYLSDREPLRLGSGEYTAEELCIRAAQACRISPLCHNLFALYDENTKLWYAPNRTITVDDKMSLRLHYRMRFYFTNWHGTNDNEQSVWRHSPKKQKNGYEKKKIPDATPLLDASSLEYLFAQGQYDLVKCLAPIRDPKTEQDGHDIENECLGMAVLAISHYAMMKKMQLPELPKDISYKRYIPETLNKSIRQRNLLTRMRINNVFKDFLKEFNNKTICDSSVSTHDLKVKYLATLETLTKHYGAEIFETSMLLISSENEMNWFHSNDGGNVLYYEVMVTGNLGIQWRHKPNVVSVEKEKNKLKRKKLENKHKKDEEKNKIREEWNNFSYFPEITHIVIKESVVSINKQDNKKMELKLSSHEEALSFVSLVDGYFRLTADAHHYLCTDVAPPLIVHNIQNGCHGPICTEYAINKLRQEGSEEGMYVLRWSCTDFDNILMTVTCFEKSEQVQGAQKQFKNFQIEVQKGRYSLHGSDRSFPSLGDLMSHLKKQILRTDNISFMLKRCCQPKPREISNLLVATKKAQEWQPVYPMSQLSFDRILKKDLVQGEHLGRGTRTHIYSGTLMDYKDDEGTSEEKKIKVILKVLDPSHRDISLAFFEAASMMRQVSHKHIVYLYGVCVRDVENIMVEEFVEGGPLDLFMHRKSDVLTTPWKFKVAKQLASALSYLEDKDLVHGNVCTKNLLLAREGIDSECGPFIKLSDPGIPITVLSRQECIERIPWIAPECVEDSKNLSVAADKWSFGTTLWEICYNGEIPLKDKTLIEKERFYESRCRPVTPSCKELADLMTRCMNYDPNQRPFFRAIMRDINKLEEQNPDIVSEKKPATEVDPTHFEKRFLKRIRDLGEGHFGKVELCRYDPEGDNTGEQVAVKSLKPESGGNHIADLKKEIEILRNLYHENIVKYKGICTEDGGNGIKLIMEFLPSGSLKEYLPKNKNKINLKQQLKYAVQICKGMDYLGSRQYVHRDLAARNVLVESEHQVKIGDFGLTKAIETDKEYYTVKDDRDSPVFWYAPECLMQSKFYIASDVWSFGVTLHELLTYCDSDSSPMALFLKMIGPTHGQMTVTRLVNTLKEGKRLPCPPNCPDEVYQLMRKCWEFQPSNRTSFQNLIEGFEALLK
JAK2, sequence (O60674 whole entry): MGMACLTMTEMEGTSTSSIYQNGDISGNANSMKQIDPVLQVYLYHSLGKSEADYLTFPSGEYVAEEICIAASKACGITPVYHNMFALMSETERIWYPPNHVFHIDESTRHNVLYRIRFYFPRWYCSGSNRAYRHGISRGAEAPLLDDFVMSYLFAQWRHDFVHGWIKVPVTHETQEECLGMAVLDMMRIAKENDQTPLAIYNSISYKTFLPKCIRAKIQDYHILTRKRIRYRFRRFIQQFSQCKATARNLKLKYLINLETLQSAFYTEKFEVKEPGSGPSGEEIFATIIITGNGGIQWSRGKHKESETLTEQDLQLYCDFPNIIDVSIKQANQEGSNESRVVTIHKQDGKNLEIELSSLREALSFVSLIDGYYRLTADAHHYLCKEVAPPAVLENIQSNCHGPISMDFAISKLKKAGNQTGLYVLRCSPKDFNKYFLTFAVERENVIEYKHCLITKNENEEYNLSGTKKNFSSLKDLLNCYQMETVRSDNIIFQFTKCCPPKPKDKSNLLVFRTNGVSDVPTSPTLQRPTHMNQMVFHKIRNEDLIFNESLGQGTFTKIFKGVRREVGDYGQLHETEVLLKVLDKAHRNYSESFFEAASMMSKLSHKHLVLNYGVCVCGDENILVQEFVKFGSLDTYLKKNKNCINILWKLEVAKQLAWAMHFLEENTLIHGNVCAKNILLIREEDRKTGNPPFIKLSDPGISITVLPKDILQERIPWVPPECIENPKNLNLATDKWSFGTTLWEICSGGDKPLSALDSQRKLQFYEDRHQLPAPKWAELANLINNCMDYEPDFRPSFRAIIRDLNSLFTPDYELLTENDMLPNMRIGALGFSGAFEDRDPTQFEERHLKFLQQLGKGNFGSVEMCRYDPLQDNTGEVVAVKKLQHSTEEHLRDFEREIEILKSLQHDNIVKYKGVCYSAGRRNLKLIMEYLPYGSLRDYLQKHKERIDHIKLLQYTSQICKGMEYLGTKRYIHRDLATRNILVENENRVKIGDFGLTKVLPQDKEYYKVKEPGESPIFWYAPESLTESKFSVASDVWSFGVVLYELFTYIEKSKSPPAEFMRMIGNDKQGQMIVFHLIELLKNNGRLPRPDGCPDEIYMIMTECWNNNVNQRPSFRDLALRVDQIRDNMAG

N#CC[C@H](C1CCCC1)n1cc(-c2ncnc3[nH]ccc23)cn1 [ruxolitinib]
effect on anemia (myelofibrosis patients): worsens anemia

N#CCNC(=O)c1ccc(-c2ccnc(Nc3ccc(N4CCOCC4)cc3)n2)cc1 [Momelotinib]
inhibition of ACVR1 [1]: inhibits | inhibition of JAK2 (JAK2): inhibits | inhibition of JAK1 (JAK1): inhibits | effect on anemia (myelofibrosis patients): improves anemia | effect on splenomegaly and disease symptoms (myelofibrosis patients): improving disease symptoms

Cc1cnc(Nc2ccc(OCCN3CCCC3)cc2)nc1Nc1cccc(S(=O)(=O)NC(C)(C)C)c1 [Fedratinib]
effect on anemia (myelofibrosis patients): worsens anemia

Cc1noc2c1-c1ccccc1C(c1ccc(Cl)cc1)=N[C@H]2CC(N)=O [CP-0610]
pro-inflammatory cytokines [2]: downregulated pro-inflammatory cytokines
